Assay results reported in article PMC11096368, “Transcriptomic signature, bioactivity and safety of a non-hepatotoxic analgesic generating AM404 in the midbrain PAG region” (Scientific Reports, 2024).

Tested on: healthy volunteers
Assay: Phase 1 trial safety and tolerability
Type: in vivo, human
Conditions: for Clinically significant abnormality (N): Adverse events / Clinically significant abnormality (N): Clinical chemistry / Clinically significant abnormality (N): ECG / Clinically significant abnormality (N): Physical exam / Clinically significant abnormality (N): Urinalysis / Clinically significant abnormality (N): Vital signs / Clinically significant abnormality (N): pharHematology: n = 6
Procedure: A randomized, double-blind, placebo-controlled Phase 1 trial (ClinicalTrials.gov identifier: NCT05484414) (02/08/2022) was conducted to assess the safety, tolerability, food effect, pharmacokinetics (PK), and pharmacodynamics (PD) of single and multiple ascending doses of SRP-001 (Quotient Sciences, Miami FL USA; Fig. 3h - k and Methods). The trial was conducted in accordance with the International Council for Harmonisation of Technical Requirements for Pharmaceuticals for Human Use (ICH), Guideline for GCP: Consolidated Guidance (E6), attained Institutional Review Board approval, and all applicable regulatory requirements for Phase 1, First in Human clinical trials. Safety measurements and plasma samples to determine PK parameters were collected throughout the study for all subjects and reviewed by the Safety Review Committee. PK stopping criteria were established to assure that systemic exposure to SRP-001 was less than or equal to the systemic exposure achieved at the NOAEL doses in the 28-day repeat-dose toxicology studies in the rat and dog. The trial’s Safety Advisory Committee has approved the publication of the Phase 1 results.
SRP-001 was administered as an oral nanosuspension to 56 healthy volunteers across five Single Ascending Dose (SAD) and two Multiple Ascending Dose (MAD) cohorts, with 42 subjects receiving SRP-001 and 14 receiving a placebo.
A two-part randomized, double-blind, placebo-controlled Phase 1 trial was conducted to assess the safety, tolerability, PK and PD of SRP-001 ascending doses (Quotient Sciences, Miami, FL, USA). The study was conducted in accordance with the International Council for Harmonisation of Technical Requirements for Pharmaceuticals for Human Use (ICH), Guideline for GCP: Consolidated Guidance (E6), and applicable regulatory requirements(s) including clinical research guidelines established by the Basic Principles defined in the U.S. 21 CFR Parts 50, 56, and 312 and the principles enunciated in the Declaration of Helsinki (revised version Fortaleza 2013). The clinical protocol and informed consent form were reviewed and approved by an Institutional Review Board (IRB; Advarra IRB, 6100 Merriweather Drive, Suite 600, Columbia, MD 21,044; Quotient Protocol No. SRP-101 and Quotient Sciences Study No. QSC205130; Quotient Sciences Miami, 3898 NW 7th Street, Miami, FL 33,126.). The study comprises a SAD (Part 1) assessment that includes a food effect assessment that contributes data to inform a subsequent MAD (Part 2) dose-ranging study. Safety measurements were collected throughout the study for all subjects. Blood samples were collected to determine the PK parameters of SRP-001 (ClinicalTrials.gov identifier: NCT05484414) (02/08/2022).
NHVs also underwent continuous ECG Holter monitoring from at least 1 h prior to dosing until 24 h post-dose, and resulting measurements were monitored consistently. All ECGs were collected electronically using a Mortara H12 + Holter monitor. Specific procedures for ECG Holter recording and extractions were provided to the Investigator by the Central ECG Laboratory, Banook Group. On Day 1, continuous Holter recording commenced at least 1 h prior to dosing until 24 h post-dose. Subjects were required to rest in the supine position with no external stimuli (e.g. music or television) for 15 min prior to the nominal time point where an ECG extraction was scheduled. This extraction was taken by the third-party Holter provider at the planned time, and therefore, no other procedures were performed within the resting period. […] Subjects were allowed to move more freely outside of the primary ECG rest periods. Comfort breaks for hygienic purposes were allowed each morning well in advance of the required supine/ECG extraction points. […]

[1] = Cohort 1 (Regimen A), 300 mg SRP-001, Fasted
[2] = Cohort 2 (Regimen B), 600 mg SRP-001, Fasted
[3] = Cohort 3 (Regimen C), 900 mg SRP-001, Fasted
[4] = Cohort 4 (Regimen E), 2000 mg SRP-001, Fasted

## CCN(CC)C(=O)c1ccccc1S(=O)(=O)NCC(=O)Nc1ccc(O)cc1 [SRP-001, N,N-diethyl-2-[[2-(4-hydroxyanilino)-2-oxo-ethyl]sulfamoyl]benzamide]
[1]
  Clinically significant abnormality (N): Adverse events: 0
  Clinically significant abnormality (N): Clinical chemistry: 0
  Clinically significant abnormality (N): ECG: 0
  Clinically significant abnormality (N): Physical exam: 0
  Clinically significant abnormality (N): Urinalysis: 0
  Clinically significant abnormality (N): Vital signs: 0
  Clinically significant abnormality (N): pharHematology: 0
[2]
  Clinically significant abnormality (N): Adverse events: 0
  Clinically significant abnormality (N): Clinical chemistry: 0
  Clinically significant abnormality (N): ECG: 0
  Clinically significant abnormality (N): Physical exam: 0
  Clinically significant abnormality (N): Urinalysis: 0
  Clinically significant abnormality (N): Vital signs: 0
  Clinically significant abnormality (N): pharHematology: 0
[3]
  Clinically significant abnormality (N): Adverse events: 0
  Clinically significant abnormality (N): Clinical chemistry: 0
  Clinically significant abnormality (N): ECG: 0
  Clinically significant abnormality (N): Physical exam: 0
  Clinically significant abnormality (N): Urinalysis: 0
  Clinically significant abnormality (N): Vital signs: 0
  Clinically significant abnormality (N): pharHematology: 0
[4]
  Clinically significant abnormality (N): Adverse events: 0
  Clinically significant abnormality (N): Clinical chemistry: 0
  Clinically significant abnormality (N): ECG: 0
  Clinically significant abnormality (N): Physical exam: 0
  Clinically significant abnormality (N): Urinalysis: 0
  Clinically significant abnormality (N): Vital signs: 0
  Clinically significant abnormality (N): pharHematology: 0
Phase 1 MAD cohort
  Emesis: no emesis
SAD and MAD cohorts
  Safety assessments (vital signs, physical examinations, continuous ECG, laboratory tests): revealed no abnormalities
Five SAD and two MAD cohorts, 42 subjects receiving SRP-001
  Serious adverse events (SAEs): no serious adverse events (SAEs) reported
Oral nanosuspension, SAD and MAD cohorts
  Tolerability: well tolerated
